Where a name gives a salt, the structure may show the parent alone.
Legend:
[1] = target: T1, human 11-β-hydroxysteroid dehydrogenase type-1 enzyme (11-β-HSD1) (Homo sapiens, UniProt P28845); assay: Scintillation Proximity Assay (11-β-HSD1 enzyme assay); format: biochemical; details: calculated from IC50 (Cheng Prushoff); tritiated Cortisone/NADPH 175 nM/181 μM; enzyme expressed in Pichia pastoris
T1 construct: made in house; host or cells: Pichia pastoris
Source text: Scintillation Proximity Assay
[1,2(n)-^3H]-cortisone was purchased from Amersham Pharmacia Biotech. Anti-cortisol monoclonal mouse antibody, clone 6D6.7 was obtained from Immunotech and Scintillation proximity assay (SPA) beads coated with monoclonal antimouse antibodies were from Amersham Pharmacia Biotech. NADPH, tetrasodium salt was from Calbiochem and glucose-6-phosphate (G-6-P) was supplied by Sigma. The human 11-β-hydroxysteroid dehydrogenase type-1 enzyme (11-β-HSD1) was expressed in Pichia pastoris. 18-β-glycyrrhetinic acid (GA) was obtained from Sigma. The serial dilutions of the compounds were performed on a Tecan Genesis RSP 150. Compounds to be tested were dissolved in DMSO (1 mM) and diluted in 50 mM Tris-HCl, pH 7.2 containing 1 mM EDTA.
The multiplication of plates was done on a WallacQuadra. The amount of the product [^3H]-cortisol, bound to the beads was determined in a Packard, Top Count microplate liquid scintillation counter.
The 11-β-HSD1 enzyme assay was carried out in 96 well microtiter plates (Packard, Optiplate) in a total well volume of 220 μL and contained 30 mM Tris-HCl, pH 7.2 with 1 mM EDTA, a substrate mixture tritiated Cortisone/NADPH (175 nM/181 μM), G-6-P (1 mM) and inhibitors in serial dilutions (9 to 0.15 μM). Reactions were initiated by the addition of human 11-β-HSD1, either as Pichia pastoris cell homogenate or microsomes prepared from Pichia pastoris (the final amount of enzyme used was varied between 0.057 to 0.11 mg/mL). Following mixing, the plates were shaken for 30 to 45 minutes at room temperature. The reactions were terminated with 10 μL 1 mM GA stop solution. Monoclonal mouse antibody was then added (10 μL of 4 μM) followed by 100 μL of SPA beads (suspended according to the manufacturers instructions). Appropriate controls were set up by omitting the 11-β-HSD1 to obtain the non-specific binding (NSB) value.
The plates were covered with plastic film and incubated on a shaker for 30 minutes, at room temperature, before counting. The amount of [^3H]-cortisol, bound to the beads was determined in a microplate liquid scintillation counter. The calculation of the Ki values for the inhibitors was performed by use of Activity Base. The Ki value is calculated from IC50 and the Km value is calculated using the Cheng Prushoff equation (with reversible inhibition that follows the Michaelis-Menten equation): Ki=IC50(1+[S]/Km) [Cheng, Y. C.; Prushoff, W. H. Biochem. Pharmacol. 1973, 22, 3099-3108]. The IC50 is measured experimentally in an assay wherein the decrease of the turnover of cortisone to cortisol is dependent on the inhibition potential of each substance. The Ki values of the compounds of the present invention for the 11-β-HSD1 enzyme lie typically between about 10 nM and about 10 μM.

T1 sequence (P28845 whole entry): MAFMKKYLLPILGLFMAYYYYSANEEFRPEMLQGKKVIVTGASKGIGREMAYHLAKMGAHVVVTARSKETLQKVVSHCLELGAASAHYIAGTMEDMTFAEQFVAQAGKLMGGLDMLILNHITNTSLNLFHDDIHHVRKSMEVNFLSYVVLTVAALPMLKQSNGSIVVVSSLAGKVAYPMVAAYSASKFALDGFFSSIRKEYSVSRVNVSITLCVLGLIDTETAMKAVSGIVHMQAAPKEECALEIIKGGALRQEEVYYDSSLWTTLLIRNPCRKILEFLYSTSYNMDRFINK

Structure (SMILES) | melting point [°C] | Ki [1] [nM]
Cc1c(Cl)cccc1NC(=O)CC1SC(NC2CC3C=CC2C3)=NC1=O (stereo not drawn) [Example 73, 2-[2-(Bicyclo[2.2.1]hept-5-en-2-ylamino)-4-oxo-4,5-dihydro-1,3-thiazol-5-yl]-N-(3-chloro-2-methylphenyl)acetamide] | 201 to 202 | –
O=C(CC1SC(NC2CC3C=CC2C3)=NC1=O)NCc1ccccc1 (stereo not drawn) [Example 74, N-Benzyl-2-[2-(bicyclo[2.2.1]hept-5-en-2-ylamino)-4-oxo-4,5-dihydro-1,3-thiazol-5-yl]acetamide] | 206 to 207 | –
O=C(CC1SC(NC2CCCCC2)=NC1=O)Nc1ccccc1Cl (stereo not drawn) [Example 97, N-(2-Chlorophenyl)-2-[2-(cyclohexylamino)-4-oxo-4,5-dihydro-1,3-thiazol-5-yl]acetamide] | 183 | –
O=C(CC1SC(N2CCCCC2)=NC1=O)Nc1ccccc1Cl (stereo not drawn) [Example 98, N-(2-Chlorophenyl)-2-(4-oxo-2-piperidin-1-yl-4,5-dihydro-1,3-thiazol-5-yl)acetamide] | 177 | –
O=C(CC1SC(NC2CC3C=CC2C3)=NC1=O)Nc1ccccc1 (stereo not drawn) [Example 99, 2-[2-(Bicyclo[2.2.1]hept-5-en-2-ylamino)-4-oxo-4,5-dihydro-1,3-thiazol-5-yl]-N-phenylacetamide] | 216 to 217 | –
O=C(CC1SC(NC2CC3C=CC2C3)=NC1=O)Nc1ccc2cn[nH]c2c1 (stereo not drawn) [Example 100, 2-[2-(Bicyclo[2.2.1]hept-5-en-2-ylamino)-4-oxo-4,5-dihydro-1,3-thiazol-5-yl]-N-1H-indazol-6-ylacetamide] | 222 to 223 | –
O=C(CC1SC(NC2CC3C=CC2C3)=NC1=O)Nc1ccc(F)cc1 (stereo not drawn) [Example 101, 2-[2-(Bicyclo[2.2.1]hept-5-en-2-ylamino)-4-oxo-4,5-dihydro-1,3-thiazol-5-yl]-N-(4-fluorophenyl)acetamide] | 215 | –
O=C(CC1SC(NC2CC3C=CC2C3)=NC1=O)Nc1ccccc1C(=O)c1ccccc1 (stereo not drawn) [Example 102, N-(2-benzoylphenyl)-2-[2-(Bicyclo[2.2.1]hept-5-en-2-ylamino)-4-oxo-4,5-dihydro-1,3-thiazol-5-yl]acetamide] | 191 to 192 | –
O=C(CC1SC(NC2CC3C=CC2C3)=NC1=O)Nc1cccc(C(=O)O)c1 (stereo not drawn) [Example 103, 3-({[2-(Bicyclo[2.2.1]hept-5-en-2-ylamino)-4-oxo-4,5-dihydro-1,3-thiazol-5-yl]acetyl}amino)benzoic acid] | 242 | –
CCNC(=O)CC1SC(NC2CC3C=CC2C3)=NC1=O (stereo not drawn) [Example 104, 2-[2-(Bicyclo[2.2.1]hept-5-en-2-ylamino)-4-oxo-4,5-dihydro-1,3-thiazol-5-yl]-N-ethylacetamide] | 187 to 188 | –
CNC(=O)CC1SC(NC2CC3C=CC2C3)=NC1=O (stereo not drawn) [Example 105, 2-[2-(Bicyclo[2.2.1]hept-5-en-2-ylamino)-4-oxo-4,5-dihydro-1,3-thiazol-5-yl]-N-methylacetamide] | 205 | –
CN(C(=O)CC1SC(NC2CC3C=CC2C3)=NC1=O)c1ccccc1Cl (stereo not drawn) [Example 107, 2-[2-(Bicyclo[2.2.1]hept-5-en-2-ylamino)-4-oxo-4,5-dihydro-1,3-thiazol-5-yl]-N-(2-chlorophenyl)-N-methylacetamide] | 149 to 150 | –
Cc1c(Cl)cccc1NC1=NC(=O)C(CC(=O)N(C)c2ccccc2)S1 (stereo not drawn) [Example 109, 2-{2-[(3-chloro-2-methylphenyl)amino]-4-oxo-4,5-dihydro-1,3-thiazol-5-yl}-N-methyl-N-phenylacetamide] | – | 709
CCC(C)CNC1=NC(=O)C(CC(=O)N2CCCc3ccccc32)S1 (stereo not drawn) [Example 125, 5-[2-(3,4-dihydroquinolin-1(2H)-yl)-2-oxoethyl]-2-[(2-methylbutyl)amino]-1,3-thiazol-4(5H)-one] | – | 384
O=C(NCCC1SC(NC2CCCCCC2)=NC1=O)Nc1ccccc1Cl (stereo not drawn) [Example 261, N-(2-chlorophenyl)-N′-{2-[2-(cycloheptylamino)-4-oxo-4,5-dihydro-1,3-thiazol-5-yl]ethyl}urea] | – | 559
O=C(CC1SC(NC2CC3C=CC2C3)=NC1=O)Oc1ccccc1Cl (stereo not drawn) [Example 279, 2-Chlorophenyl [2-(bicyclo[2.2.1]hept-5-en-2-ylamino)-4-oxo-4,5-dihydro-1,3-thiazol-5-yl]acetate] | 211 | –
COc1ccccc1OC(=O)CC1SC(NC2CC3C=CC2C3)=NC1=O (stereo not drawn) [Example 281, 2-Methoxyphenyl [2-(bicyclo[2.2.1]hept-5-en-2-ylamino)-4-oxo-4,5-dihydro-1,3-thiazol-5-yl]acetate] | 175 to 176 | –
O=C(CC1SC(NC2CC3C=CC2C3)=NC1=O)Oc1cccc(N2CCOCC2)c1 (stereo not drawn) [Example 282, 3-Morpholin-4-ylphenyl [2-(bicyclo[2.2.1]hept-5-en-2-ylamino)-4-oxo-4,5-dihydro-1,3-thiazol-5-yl]acetate] | 203 to 204 | –
O=C(CC1SC(NC2CC3C=CC2C3)=NC1=O)c1ccc(Cl)cc1 (stereo not drawn) [Example 283, 2-(Bicyclo[2.2.1]hept-5-en-2-ylamino)-5-[2-(4-chlorophenyl)-2-oxoethyl]-1,3-thiazol-4(5H)-one] | 244 to 245 | –
O=C(O)CC1SC(NC2CC3C=CC2C3)=NC1=O (stereo not drawn) [Example 288, [2-(Bicyclo[2.2.1]hept-5-en-2-ylamino)-4-oxo4,5-dihydro-1,3-thiazol-5-yl]acetic acid] | 232 | –
O=C1N=C(NC2(c3ccc(Cl)cc3)CCC2)SC1CCNc1ccccc1 (stereo not drawn) [Example 335, 5-(2-anilinoethyl)-2-{[1-(4-chlorophenyl)cyclobutyl]amino}-1,3-thiazol-4(5H)-one hydrobromide] | – | 535

— patent US20050239853A1, “New compounds” (priority 2004, published 2005)
